Data: patent US20100015245A1, “Combination of Copper Cations with Peroxides or Quaternary Ammonium Compounds for the Treatment of Biofilms” (priority 2008, published 2010)
Several values for one entry are separate records, joined by “and”; a condition that tells them apart may be missing. Identical values can stand only once. Like-named read-outs stand apart in the source and are kept apart here.

Columns and labels:
[1] = test system: P. aeruginosa ATCC 15442 biofilms; experiment: High-throughput biofilm susceptibility screening with checkerboard plates (Calgary Biofilm Device), OD650 endpoint; assay type: cell-based, Pseudomonas aeruginosa
[2] = test system: microaerobic cultures of P. aeruginosa ATCC 15442; experiment: Cell survival of microaerobic (anaerobic) planktonic cultures; assay type: cell-based, Pseudomonas aeruginosa; conditions: 1 mM CuSO4 and/or 25 ppm Polycide®, 48 h at 37° C., BHI broth
Description: (§1) FIGS. 6A-C. Cell survival and nitrate (NO3) reduction by anaerobic P. aeruginosa ATCC 15442 cultures grown in the presence of Cu^2+ and Polycide®, alone and in combination. An aerobic starter culture was grown overnight in TSB and this was diluted 1 in 500 to get a starting cell count of 1×10^7 CFU/mL for anaerobic cultures. These cells were grown in BHI broth, with and without the addition of 1 mM KNO3, for 6 h prior to the addition of 1 mM CuSO4, 25 ppm Polycide , or 1 mM CuSO4+25 ppm Polycide®. Following an additional 48 h incubation at 37° C., aliquots were removed to determine (FIG. 6A) mean viable cell counts and (FIG. 6B) log-killing. Remaining cells from anaerobic cultures were lysed and fractionated into cytosolic and membrane components. The cytosolic components were assayed for (FIG. 6C) nitrate reductase (NR) activity. In this figure, each bar represents the mean and standard deviation of 3 to 8 independent replicates. NR activity calculations were corrected for baseline shifts in spectrophotometric measurements caused by the presence of oxygen in water, which reacts with reduced methyl viologen over time.
Strains and growth media. All of the microbial strains used in this study are summarized in TABLE 1 and all were stored at −70° C. in Microbank™ vials (ProLab Diagnostics, Toronto, Canada) according to the manufacturer's directions. […]

[3] = test system: P. aeruginosa ATCC 27853 biofilms; experiment: Confocal-laser scanning microscopy (CLSM) with Live/Dead staining of biofilms; assay type: cell-based, Pseudomonas aeruginosa; conditions: 8 mM Cu^2+ and/or 200 ppm Polycide®, qualitative
Description: Confocal-laser scanning microscopy (CLSM). Pegs were broken from the lid of the CBD using needle nose pliers. Cell viability staining of P. aeruginosa ATCC 27853 biofilms using the Live/Dead® BacLight™ Kit (Molecular Probes, Burlington, ON, Canada) was carried out according to the method as previously described (Harrison et al., 2007). Here, biofilms exposed to metals and/or biocides were rinsed twice with 0.9% saline and then stained with Syto-9 and propidium iodide at 30° C. for 30 min. Fluorescently labeled biofilms were placed in two drops of 0.9% saline on the surface of a glass coverslip. These pegs were examined using a Leica DM IRE2 spectral confocal and multiphoton microscope with a Leica TCS SP2 acoustic optical beam splitter (AOBS) (Leica Microsystems, Richmond Hill, ON, Canada) as previously described (Harrison el al., 2007). To eliminate artefacts associated with single wavelength excitation, Live/Dead® stained samples were sequentially scanned, frame-by-frame, first at 488 nm and then at 543 nm. Fluorescence emission was then sequentially collected in the green and red regions of the spectrum. […]
Up to this point, the inventors have assessed the antimicrobial action of Cu^2+ and Polycide® using viable cell counting; however, there is an alternate method of assessing biofilm cell survival: CLSM in conjunction with Live/Dead® staining. […]

nitrate reductase (NR) = experiment: Nitrate reductase activity of cytosolic fractions of treated cultures (methyl viologen assay); assay type: biochemical, Pseudomonas aeruginosa; conditions: cells grown with 1 mM CuSO4 and/or 25 ppm Polycide®
Description: as §1
Protein fractionation and nitrate reduction assays. […] Nitrate reductase activity was determined spectrophotometrically at 575 nm for cytoplasmic fractions, using methyl viologen as an electron donor, as previously described (Jones et al., 1977; Magalon et al., 1998).

[4] = 5 min exposure, double distilled water, single agent, median
[5] = 30 min exposure, double distilled water, single agent, median
[6] = 24 h exposure, 10% tryptic soy broth/0.9% NaCl, single agent, median

Compound | Biofilm minimum bactericidal concentration (MBCb) [1, 4] | Biofilm minimum bactericidal concentration (MBCb) [1, 5] | Biofilm minimum bactericidal concentration (MBCb) [1, 6] | Effect on microaerobic cultures (viable cell counts, log-killing) [2] | Bacterial cell survival in biofilms by Live/Dead staining [3] | Biofilm minimum bactericidal concentration (MBCb) [1] | Nitrate reduction capacity / NR activity of cell lysates (nitrate reductase (NR))
O=[Se]([O-])[O-].[Na+].[Na+] [SeO3^2−, Sodium selenite] | >16 mM | >16 mM | >16 mM | – | – | – | –
O=S(=O)([O-])[O-].[Cu+2] [Cu^2+, cupric sulfate] | – | – | – | bacteriostatic | killed a significant portion of the bacterial population | >32 mM and 32 mM | significantly reduced capacity for nitrate reduction
O=[N+]([O-])[O-].[Ag+] [Ag^+, silver nitrate] | >19 mM | >19 mM | >19 mM | – | – | – | –
O=S(=O)([O-])[O-].[Zn+2] [Zn^2 +, zinc sulfate] | – | – | – | – | – | >31 mM | –
CC(C)O [Isopropyl Alcohol, Isopropyl alcohol] | 0.50% | 0.50% | 0.50% | – | – | – | –
